Legend:
K562 = assay: Growth inhibitory concentration of compound was measured against human leukemia cell line (K562); assay type: functional, cell-based
T-24 = assay: Growth inhibitory concentration of compound was measured against human bladder carcinoma cell line (T24); assay type: functional, cell-based
KB = assay: Growth inhibitory concentration of compound was measured against human nasopharyngeal carcinoma cell line (KB); assay type: functional, cell-based
L1210 = assay: Growth inhibitory concentration of compound was measured against murine leukemia cell line (L1210); assay type: functional, cell-based; settings: Mus musculus
P388 [1] = assay: Growth inhibitory concentration of compound was measured against murine leukemia cell line (P388); assay type: functional, cell-based; settings: Mus musculus
PC-14 = assay: Growth inhibitory concentration of compound was measured against human lung carcinoma cell line (PC-14); assay type: functional, cell-based
P388 [2] = assay: Growth inhibitory concentration of compound was measured against DOX resistant P388 cell line (P388 /DOX); assay type: functional, cell-based; settings: Mus musculus
MKN-1 = assay: Growth inhibitory concentration of compound was measured against human gastric adenocarcinoma cell line (MKN-1); assay type: functional, cell-based
Melanoma cell line = assay: Growth inhibitory concentration of compound was measured against human melanoma cell line (HMV-1); assay type: functional, cell-based
DNA topoisomerase II = DNA topoisomerase II (Homo sapiens, UniProt P11388+Q02880); assay: The compound was tested for its inhibitory activity against topoisomerase II; assay type: protein assay

| IC50 (K562) [nM] | IC50 (KB) [nM] | IC50 (L1210) [nM] | IC50 (P388 [1]) [nM] | IC50 (P388 [2]) [nM] | IC50 (MKN-1) [nM] | IC50 (Melanoma cell line) [nM] | IC50 (DNA topoisomerase II) [nM] | Compound | IC50 (T-24) [nM] | IC50 (PC-14) [nM] |
| --- | --- | --- | --- | --- | --- | --- | --- | --- | --- | --- |
| 5800 | > 8500 | > 8500 | > 8500 | > 8500 | > 8500 | 7500 |  | CC1OC(Oc2c3c(c4cccnc4c2OC2OC(C)C(O)C(O)C2F)C(=O)c2ccccc2C3=O)C(F)C(O)C1O (configuration not stated) | > 8500 | > 8500 |
| 7200 | 3000 | 7200 | 6900 | 3300 | 14000 | 4100 |  | O=C1c2ccccc2C(=O)c2c1c(O)c(O)c1ncccc21 | 14000 | > 17000 |
| 710 | 270 | 320 | 770 | 820 | 730 | 590 | 5000 | CC1OC(Oc2c(O)c3c(c4cccnc24)C(=O)c2ccccc2C3=O)C(F)C(O)C1O (configuration not stated) | 360 | 710 |

| Compound | IC50 (K562) [nM] | IC50 (KB) [nM] | IC50 (L1210) [nM] | IC50 (P388 [1]) [nM] | IC50 (P388 [2]) [nM] | IC50 (MKN-1) [nM] | IC50 (Melanoma cell line) [nM] | IC50 (DNA topoisomerase II) [nM] | IC50 (T-24) [nM] | IC50 (PC-14) [nM] |
| --- | --- | --- | --- | --- | --- | --- | --- | --- | --- | --- |
| COc1cccc2c1C(=O)c1c(O)c3c(c(O)c1C2=O)C[C@@](O)(C(=O)CO)C[C@@H]3O[C@H]1C[C@H](N)[C@H](O)[C@H](C)O1 [DOXORUBICIN] | 120 | 220 | 50 | 20 | > 900 | 640 | 280 |  | 640 | 1900 |

Source: ChEMBL document CHEMBL1133368, “Preparation of 5-(2,6-dideoxy-2-fluoro-alpha-L-talopyranosyloxy)-6-hydroxynap htho[2,3- f]quinoline-7,12-dione (FT-Alz), a new-type, potentially antitumor substance with various biological activities” (Bioorg Med Chem Lett, 2000)
